4 compounds from PubChem BioAssay AID1259407 (Chemical Carcinogenesis Research Information System (CCRIS), 2018) can be followed below.

Calls of active or inactive are those of the source. How the calls were made is not given here.

The data set deals with CCRIS mutagenicity, Ames/micronucleus/aberration tests. The data set is described as follows: CCRIS mutagenicity studies.
Setting [1] is: Test System: AMES SALMONELLA TYPHIMURIUM, Strain/Indicator: TA98, Metabolic Activation: NONE, Method: STANDARD PLATE.
Setting [2] is: Test System: AMES SALMONELLA TYPHIMURIUM, Strain/Indicator: TA98, Metabolic Activation: RAT, LIVER, S-9, AROCLOR 1254, Method: STANDARD PLATE.
[3] abbreviates: Test System: AMES SALMONELLA TYPHIMURIUM, Strain/Indicator: TA100, Metabolic Activation: NONE, Method: STANDARD PLATE.
[4] abbreviates: Test System: AMES SALMONELLA TYPHIMURIUM, Strain/Indicator: TA100, Metabolic Activation: RAT, LIVER, S-9, AROCLOR 1254, Method: STANDARD PLATE.

Take `C1OCOCO1`: the mutagenic call runs as follows: (Test System: AMES SALMONELLA TYPHIMURIUM, Strain/Indicator: TA97, Metabolic Activation: HAMSTER, LIVER, S-9, AROCLOR 1254 (10 OR 30%), Method: PREINCUBATION) “inactive; negative”; (Test System: AMES SALMONELLA TYPHIMURIUM, Strain/Indicator: TA97, Metabolic Activation: NONE, Method: PREINCUBATION) “inactive; negative”; (Test System: AMES SALMONELLA TYPHIMURIUM, Strain/Indicator: TA97, Metabolic Activation: RAT, LIVER, S-9, AROCLOR 1254 (10 OR 30%), Method: PREINCUBATION) “inactive; negative”; (Test System: AMES SALMONELLA TYPHIMURIUM, Strain/Indicator: TA98, Metabolic Activation: HAMSTER, LIVER, S-9, AROCLOR 1254 (10 OR 30%), Method: PREINCUBATION) “inactive; negative”; (Test System: AMES SALMONELLA TYPHIMURIUM, Strain/Indicator: TA98, Metabolic Activation: NONE, Method: PREINCUBATION) “inactive; negative”; under setting [1], “inactive; negative”. Moreover, the mutagenic call is “inactive; negative” (Test System: AMES SALMONELLA TYPHIMURIUM, Strain/Indicator: TA98, Metabolic Activation: RAT, LIVER, S-9, AROCLOR 1254 (10 OR 30%), Method: PREINCUBATION); “inactive; negative” under setting [2]; “inactive; negative” (Test System: AMES SALMONELLA TYPHIMURIUM, Strain/Indicator: TA100, Metabolic Activation: HAMSTER, LIVER, S-9, AROCLOR 1254 (10 OR 30%), Method: PREINCUBATION); “inactive; negative” (Test System: AMES SALMONELLA TYPHIMURIUM, Strain/Indicator: TA100, Metabolic Activation: NONE, Method: PREINCUBATION); “inactive; negative” under setting [3]; “inactive; negative” (Test System: AMES SALMONELLA TYPHIMURIUM, Strain/Indicator: TA100, Metabolic Activation: RAT, LIVER, S-9, AROCLOR 1254 (10 OR 30%), Method: PREINCUBATION). In addition, the mutagenic call reads like this: under setting [4], “inactive; negative”; (Test System: AMES SALMONELLA TYPHIMURIUM, Strain/Indicator: TA1535, Metabolic Activation: HAMSTER, LIVER, S-9, AROCLOR 1254 (10 OR 30%), Method: PREINCUBATION) “inactive; negative”; (Test System: AMES SALMONELLA TYPHIMURIUM, Strain/Indicator: TA1535, Metabolic Activation: NONE, Method: PREINCUBATION) “inactive; negative”; (Test System: AMES SALMONELLA TYPHIMURIUM, Strain/Indicator: TA1535, Metabolic Activation: NONE, Method: STANDARD PLATE) “inactive; negative”; (Test System: AMES SALMONELLA TYPHIMURIUM, Strain/Indicator: TA1535, Metabolic Activation: RAT, LIVER, S-9, AROCLOR 1254 (10 OR 30%), Method: PREINCUBATION) “inactive; negative”; (Test System: AMES SALMONELLA TYPHIMURIUM, Strain/Indicator: TA1535, Metabolic Activation: RAT, LIVER, S-9, AROCLOR 1254, Method: STANDARD PLATE) “inactive; negative”. The mutagenic call reads like this: (Test System: AMES SALMONELLA TYPHIMURIUM, Strain/Indicator: TA1537, Metabolic Activation: NONE, Method: STANDARD PLATE) “inactive; negative”; (Test System: AMES SALMONELLA TYPHIMURIUM, Strain/Indicator: TA1537, Metabolic Activation: RAT, LIVER, S-9, AROCLOR 1254, Method: STANDARD PLATE) “inactive; negative”; (Test System: AMES SALMONELLA TYPHIMURIUM, Strain/Indicator: TA1538, Metabolic Activation: NONE, Method: STANDARD PLATE) “inactive; negative”; (Test System: AMES SALMONELLA TYPHIMURIUM, Strain/Indicator: TA1538, Metabolic Activation: RAT, LIVER, S-9, AROCLOR 1254, Method: STANDARD PLATE) “inactive; negative”.

Regarding `NC(=O)N(CCF)N=O`, the mutagenic call (Test System: E. COLI B, Strain/Indicator: H/R30R, Metabolic Activation: NONE) is “active; positive” and the mutagenic call (Test System: E. COLI B, Strain/Indicator: HS30R, Metabolic Activation: NONE) is “active; positive”.

Turning to `COC(=O)C12OC1(C)C(C(C)C)OC2=O` (stereo not drawn), the mutagenic call (Test System: AMES SALMONELLA TYPHIMURIUM, Strain/Indicator: TA98, Metabolic Activation: NONE, Method: DISK ASSAY) was “active; positive”; the mutagenic call under setting [1] was “active; positive”; the mutagenic call (Test System: AMES SALMONELLA TYPHIMURIUM, Strain/Indicator: TA98, Metabolic Activation: RAT, LIVER, S-9, AROCLOR 1254, Method: DISK ASSAY) was “active; positive”; the mutagenic call under setting [2] was “active; positive”; the mutagenic call under setting [3] was “inactive; negative”; the mutagenic call under setting [4] was “active; positive”.

With `CC(C)(C)NC(=O)[C@H]1CC[C@H]2[C@@H]3CC=C4C=C(C(=O)O)CC[C@]4(C)[C@H]3CC[C@]12C`, the mutagenic call was “inactive; negative” (Test System: AMES SALMONELLA TYPHIMURIUM, Strain/Indicator: TA97, Metabolic Activation: NONE, Method: STANDARD PLATE); “inactive; negative” (Test System: AMES SALMONELLA TYPHIMURIUM, Strain/Indicator: TA97, Metabolic Activation: RAT LIVER S-9, AROCLOR 1254, Method: PREINCUBATION); “inactive; negative” under setting [1]; “inactive; negative” (Test System: AMES SALMONELLA TYPHIMURIUM, Strain/Indicator: TA98, Metabolic Activation: RAT LIVER S-9, AROCLOR 1254, Method: PREINCUBATION); “inactive; negative” under setting [3]; “inactive; negative” (Test System: AMES SALMONELLA TYPHIMURIUM, Strain/Indicator: TA100, Metabolic Activation: RAT LIVER S-9, AROCLOR 1254, Method: PREINCUBATION). For the same compound, the mutagenic call by setting is: (Test System: AMES SALMONELLA TYPHIMURIUM, Strain/Indicator: TA102, Metabolic Activation: NONE, Method: STANDARD PLATE) “inactive; negative”; (Test System: AMES SALMONELLA TYPHIMURIUM, Strain/Indicator: TA102, Metabolic Activation: RAT LIVER S-9, AROCLOR 1254, Method: PREINCUBATION) “inactive; negative”.
